Holding throughout (assay type): cell-based
Data set [1] is described as follows: In vitro counter screen, cytotoxicity L6. The note with it: murine. For orientation: The purpose of a counterscreen is to sort out artefacts and off-target activity.
For the next data set, the system named is P. falc. K1. Description: In vitro counter screen, P. falc. K1. Here is the method: (§1) In vitro counter screens were performed to confirm our findings.
A further data set has as its system T. cruzi. Kind of data set: In vitro counter screen, T. cruzi. The note with it: Trypanosoma cruzi. Here is the method:
A high-throughput screen of small molecules was performed in duplicate in the recombinant Tulahuen strain of T. cruzi stably expressing a beta-galactosidase reporter gene. Trypomastogote-stage parasites were co-cultured with mouse fibroblast NIH/3T3 host cells, (Buckner F S, Verlinde C L, La Flamme A C, Van Voorhis W C. Efficient technique for screening drugs for activity against Trypanosoma cruzi using parasites expressing beta-galactosidase. Antimicrob Agents Chemother. 1996; 40(11): 2592-2597). Signal was normalized to neutral (DMSO) controls, and a 75% inhibition cutoff was used to define a hit. Compounds initially designated as hits were retested in dose in the primary assay to confirm their inhibitory activity. In parallel, compounds were tested in toxicity assays against NIH/3T3 host cells to determine if these compounds were cytotoxic to mammalian cells and thus, false positives. Compounds that reduced the viability of NIH/3T3 cells were excluded as viable hits. A subset of hits were then tested in a similar infection assay with the Tulahuen strain of T. cruzi infecting murine L-6 cells and the intracellular T. cruzi immunofluorescence assay described below.
as §1

For another data set, the system named is T. b. rhod. Description: In vitro counter screen, T. b. rhod. Here is the method:
as §1

The test system of the next data set is L. don. axen. Description: In vitro counter screen, L. don. axen. Here is the method:
as §1

Several values for one entry are separate records, joined by “and”; a condition that tells them apart may be missing. Equal entries are not always repeated. Where two headings read alike, the source gives them in different places.

This passage reports IC50 results from patent US20140045860A1, “SMALL MOLECULE INHIBITORS FOR TREATING PARASITIC INFECTIONS” (NEW YORK UNIVERSITY, priority 2011, published 2014).

With `C[C@H]1CN([C@@H](C)CO)C(=O)c2cccc(NC(=O)c3ccncc3)c2O[C@H]1CN(C)Cc1ccccc1` [Compound 17], the IC50 in data set [1] was > 199 µM and > 100 µg/mL; in the data set on P. falc. K1 (read-out: P. falc. K1 IC50) it was 5.64 µg/mL; in the data set on P. falc. K1 (same result as ug/mL, in uM, read-out: P. falc. K1 (IC50 uM)) it was 11.2 µM; with T. cruzi (read-out: T. cruzi (IC50 uM)), 0.39 µM; in the data set with T. cruzi (read-out: T. cruzi IC50 (ug/mL)), 0.196 µg/mL; in the data set with T. b. rhod. (read-out: T. b. rhod. (IC50, ug/mL)), 6.14 µg/mL. For the same molecule, the IC50 in the data set on T. b. rhod. (same result as ug/mL, in uM, read-out: T. b. rhod (IC50 uM)) is 12.2 µM; in the data set on L. don. axen. (read-out: L. don. axen. IC50), > 100 µg/mL; with L. don. axen. (same result as ug/mL, in uM, read-out: L. don. Axen (IC50 uM)), > 199 µM.
